# According to ChEMBL document CHEMBL1134418, “Synthesis of tetrocarcin derivatives with specific inhibitory activity towards Bcl-2 functions” (2001):
# Key:
# Bacillus subtilis = assay: Antibacterial activity was evaluated against Bacillus subtilis; format: functional
# [1] = target: Apoptosis regulator Bcl-2 (Homo sapiens) (UniProt P10415); assay: Effect on DEVD cleavage by DEVDase assay with anti-Fas antibody treatment using Bcl-2 overexpressing HeLa cells; 3 fold activation concentration (AC3); format: functional, cell-based
# [2] = target: Apoptosis regulator Bcl-2 (Homo sapiens) (UniProt P10415); assay: Effect on DEVD cleavage by DEVDase assay without anti-Fas antibody using Bcl-2 overexpressing HeLa cells; 3 fold activation concentration (AC3); format: functional, cell-based
# HeLa [3] = assay: Evaluated for HeLa cell viability with anti-Fas antibody treatment by XTT assay; 3 fold activation concentration (AC3); format: functional, Homo sapiens
# HeLa [4] = assay: Evaluated for HeLa cell viability without anti-Fas antibody treatment by XTT assay; 3 fold activation concentration (AC3); format: functional, Homo sapiens
# Apoptosis regulator Bcl-2 (Homo sapiens), sequence (P10415 whole entry): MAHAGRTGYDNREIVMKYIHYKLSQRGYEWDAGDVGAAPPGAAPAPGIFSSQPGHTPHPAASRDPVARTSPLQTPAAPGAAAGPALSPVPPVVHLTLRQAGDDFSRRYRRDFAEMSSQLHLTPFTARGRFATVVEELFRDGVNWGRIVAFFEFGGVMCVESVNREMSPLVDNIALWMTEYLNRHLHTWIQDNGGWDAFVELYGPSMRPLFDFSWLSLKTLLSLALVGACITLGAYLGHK
MIC (Bacillus subtilis),AC3 [1],AC3 [2],SMILES,AC3 (HeLa [3]),AC3 (HeLa [4])
> 50 mg/L,9.5 µM,> 10 µM,COCCOCCOCC(=O)O[C@@H]1[C@H]2C=C[C@H]3/C(C)=C/C[C@H](O[C@H]4CC(C)([N+](=O)[O-])C(NC(=O)OC)[C@H](C)O4)/C(C)=C\[C@@H]4[C@@H](O[Si](C)(C)C(C)(C)C)C=C(C=O)C[C@]45OC(O)=C(C(=O)[C@@]3(C)[C@@H]2[C@@H](C)C[C@@H]1C)C5=O (stereo not given in full),3.9 µM,6.4 µM
> 50 mg/L,8.4 µM,> 10 µM,COC(=O)NC1[C@H](C)O[C@@H](O[C@H]2C/C=C(\C)[C@@H]3C=C[C@@H]4[C@@H](O)[C@@H](C)C[C@H](C)[C@H]4[C@]3(C)/C(O)=C3\C(=O)O[C@]4(CC(C=O)=C[C@H](OC(C)=O)[C@H]4/C=C\2C)C3=O)CC1(C)[N+](=O)[O-] (stereo not given in full),>10 µM,>10 µM
> 50 mg/L,> 10 µM,> 10 µM,COCCOCCOCC(=O)O[C@@H]1[C@H]2C=C[C@H]3/C(C)=C/C[C@H](O[C@H]4CC(C)([N+](=O)[O-])C(NC(=O)OC)[C@H](C)O4)/C(C)=C\[C@@H]4[C@@H](O)C=C(C=O)C[C@]45OC(O)=C(C(=O)[C@@]3(C)[C@@H]2[C@@H](C)C[C@@H]1C)C5=O (stereo not given in full),>10 µM,>10 µM
> 50 mg/L,> 10 µM,> 10 µM,COC(=O)NC1[C@H](C)O[C@@H](O[C@H]2C/C=C(\C)[C@@H]3C=C[C@@H]4[C@@H](O)[C@@H](C)C[C@H](C)[C@H]4[C@]3(C)/C(O)=C3\C(=O)O[C@]4(CC(C=O)=C[C@H](O)[C@H]4/C=C\2C)C3=O)CC1(C)[N+](=O)[O-] (stereo not given in full),>10 µM,>10 µM
6.3 mg/L,3.9 µM,4.9 µM,COC(=O)NC1[C@H](C)O[C@@H](O[C@H]2C/C=C(\C)[C@@H]3C=C[C@@H]4[C@@H](O[C@H]5CCCCO5)[C@@H](C)C[C@H](C)[C@H]4[C@]3(C)/C(O)=C3\C(=O)O[C@]4(CC(C=O)=C[C@H](OC(C)=O)[C@H]4/C=C\2C)C3=O)CC1(C)[N+](=O)[O-] (stereo not given in full),3.9 µM,4.8 µM
> 50 mg/L,1.3 µM,1.8 µM,COC(=O)NC1[C@H](C)O[C@@H](O[C@H]2C/C=C(\C)[C@@H]3C=C[C@@H]4[C@@H](O[Si](C)(C)C(C)(C)C)[C@@H](C)C[C@H](C)[C@H]4[C@]3(C)/C(O)=C3\C(=O)O[C@]4(CC(C=O)=C[C@H](O)[C@H]4/C=C\2C)C3=O)CC1(C)[N+](=O)[O-] (stereo not given in full),2 µM,2 µM
> 50 mg/L,3.6 µM,> 10 µM,COC(=O)NC1[C@H](C)O[C@@H](O[C@H]2C/C=C(\C)[C@@H]3C=C[C@@H]4[C@@H](OC5C=C[C@H](O)[C@H](C)O5)[C@@H](C)C[C@H](C)[C@H]4[C@]3(C)/C(O)=C3\C(=O)O[C@]4(CC(C=O)=C[C@H](OC(C)=O)[C@H]4/C=C\2C)C3=O)CC1(C)[N+](=O)[O-] (stereo not given in full),3.7 µM,>10 µM

# Continued, compound first:
SMILES,MIC (Bacillus subtilis),AC3 [1],AC3 [2],AC3 (HeLa [3]),AC3 (HeLa [4])
COC(=O)NC1[C@H](C)O[C@@H](O[C@H]2C/C=C(\C)[C@@H]3C=C[C@@H]4[C@@H](O)[C@@H](C)C[C@H](C)[C@H]4[C@]3(C)/C(O)=C3\C(=O)O[C@]4(CC(C=O)=C[C@H](O[Si](C)(C)C(C)(C)C)[C@H]4/C=C\2C)C3=O)CC1(C)[N+](=O)[O-] (stereo not given in full),> 50 mg/L,> 10 µM,> 10 µM,>10 µM,>10 µM
COC(=O)NC1[C@H](C)O[C@@H](O[C@H]2C/C=C(\C)[C@@H]3C=C[C@@H]4[C@@H](O[C@@H]5CC(OC(C)=O)C(OC(C)=O)[C@H](C)O5)[C@@H](C)C[C@H](C)[C@H]4[C@]3(C)/C(O)=C3\C(=O)O[C@]4(CC(C=O)=C[C@H](OC(C)=O)[C@H]4/C=C\2C)C3=O)CC1(C)[N+](=O)[O-] (stereo not given in full),16.7 mg/L,2.1 µM,> 10 µM,1.1 µM,>10 µM
COC(=O)NC1[C@H](C)O[C@@H](O[C@H]2C/C=C(\C)[C@@H]3C=C[C@@H]4[C@@H](OC5C[C@H](O[C@@H]6CCC(OC7C[C@H](O)[C@@H](OC8CC[C@@H](O)C(C)O8)C(C)O7)[C@H](C)O6)[C@@H](OC(C)=O)C(C)O5)[C@@H](C)C[C@H](C)[C@H]4[C@]3(C)C(=O)C3=C(OC)[C@@]4(CC(C=O)=CC(O)[C@H]4/C=C\2C)OC3=O)CC1(C)[N+](=O)[O-] (stereo not given in full),5.2 mg/L,1 µM,2.5 µM,0.8 µM,1.5 µM
COC(=O)NC1[C@H](C)O[C@@H](O[C@H]2C/C=C(\C)[C@@H]3C=C[C@@H]4[C@@H](OCc5ccc(OC)cc5)[C@@H](C)C[C@H](C)[C@H]4[C@]3(C)/C(O)=C3\C(=O)O[C@]4(CC(C=O)=C[C@H](OC(C)=O)[C@H]4/C=C\2C)C3=O)CC1(C)[N+](=O)[O-] (stereo not given in full),> 50 mg/L,3.8 µM,4.8 µM,7.6 µM,5.8 µM
COC(=O)NC1[C@H](C)O[C@@H](O[C@H]2C/C=C(\C)[C@@H]3C=C[C@@H]4[C@@H](OC5C[C@H](O[C@@H]6CCC(OC7C[C@H](O)[C@@H](OC8CC[C@@H](O)C(C)O8)C(C)O7)[C@H](C)O6)[C@@H](OC(C)=O)C(C)O5)[C@@H](C)C[C@H](C)[C@H]4[C@]3(C)/C(O)=C3\C(=O)O[C@]4(CC(C=O)=CC(O)[C@H]4/C=C\2C)C3=O)CC1(C)[N+](=O)[O-] (stereo not given in full),< 0.049 mg/L,2.2 µM,7.7 µM,1.4 µM,4 µM
COC(=O)NC1[C@H](C)O[C@@H](O[C@H]2C/C=C(\C)[C@@H]3C=C[C@@H]4[C@@H](O[Si](C)(C)C(C)(C)C)[C@@H](C)C[C@H](C)[C@H]4[C@]3(C)/C(O)=C3\C(=O)O[C@]4(CC(C=O)=C[C@H](O[Si](C)(C)C(C)(C)C)[C@H]4/C=C\2C)C3=O)CC1(C)[N+](=O)[O-] (stereo not given in full),> 50 mg/L,> 10 µM,> 10 µM,>10 µM,>10 µM
COC(=O)NC1[C@H](C)O[C@@H](O[C@H]2C/C=C(\C)[C@@H]3C=C[C@@H]4[C@@H](OC5(C)O[C@@H]6OC(COC(C)=O)[C@@H](OC(C)=O)C(OC(C)=O)[C@@H]6O5)[C@@H](C)C[C@H](C)[C@H]4[C@]3(C)/C(O)=C3\C(=O)O[C@]4(CC(C=O)=C[C@H](OC(C)=O)[C@H]4/C=C\2C)C3=O)CC1(C)[N+](=O)[O-] (stereo not given in full),> 50 mg/L,5.7 µM,> 10 µM,1.8 µM,>10 µM
CC[Si](CC)(CC)OO[C@H]1C=CC(O[C@@H]2[C@H]3C=C[C@H]4/C(C)=C/C[C@H](O[C@H]5CC(C)([N+](=O)[O-])C(NC(=O)OC)[C@H](C)O5)/C(C)=C\[C@@H]5[C@@H](OC(C)=O)C=C(C=O)C[C@]56OC(O)=C(C(=O)[C@@]4(C)[C@@H]3[C@@H](C)C[C@@H]2C)C6=O)O[C@H]1C (stereo not given in full),> 50 mg/L,4.9 µM,> 10 µM,4.3 µM,>10 µM
